According to EPA's ToxValDB 9.5:
“And” between values parts separate entries of the source, which are not always exact repeats. Equal values may be shown once.

Assays:
Rattus norvegicus [1] = conditions: repeat dose other; oral
Canidae [2] = conditions: repeat dose other; oral; Dog Other
Rattus norvegicus [3] = conditions: chronic, M/F
Rattus norvegicus [4] = conditions: chronic; duration: 2 years; oral; drinking water; Liver: Lesions
Rattus norvegicus [5] = assay: LC50; conditions: acute; oral; gavage
Oryctolagus sp. = conditions: for LD50: acute, dermal
Rattus norvegicus [6] = test system: Rattus norvegicus
Mus musculus [7] = assay: LD0; higher = less toxic; conditions: acute; oral
Canidae [8] = conditions: chronic; duration: 9 years; oral; capsule; F; Beagle; hepatic
Canidae [9] = conditions: chronic, oral, Beagle
Rattus norvegicus [10] = conditions: chronic; duration: 2 years; oral; diet; M/F; Osborne-Mendel; hepatic
Mus musculus [11] = conditions: developmental; duration: 7 days; oral; gavage; M/F; ICR; developmental
Neovison sp. = conditions: repeat dose other; oral; Mink
Monkey = conditions: developmental; oral; M/F; reduced birth weight
Gallus sp. = conditions: acute; oral; gavage; White Leghorn
Canidae [12] = conditions: chronic, Beagle
Rattus norvegicus [13] = conditions: subchronic; duration: 13 weeks; oral; gavage; M/F; Fischer 344; Deaths + Body Weight Changes: decrease + Urinalysis: Volume increase, Coproporphyrin increase + Blood Chemistry: Cho increase, TG decrease, …
Canidae [14] = conditions: subchronic; duration: 13 weeks; oral; capsule; M/F; Dog Other; histopathologic liver
Mus musculus [15] = assay: LD100; higher = less toxic; conditions: acute; oral; gavage; B6C3F1
Rattus norvegicus [16] = conditions: reproduction developmental; inhalation; whole body; M/F; Crl:CD(SD); Hepatic, Urinary
Mus musculus [17] = conditions: oral, gavage
Rattus norvegicus [18] = assay: LD10; higher = less toxic; conditions: acute; inhalation
Mus musculus [19] = conditions: duration: 13 weeks, oral, M/F, CD1, Hepatotoxic lesions (males)
[20] = inhalation, liver toxicity (fatty change)
[21] = oral, drinking water, liver toxicity (fatty change)
[22] = reproduction developmental, duration: 12 days, oral, gavage, F, New Zealand
[23] = short-term, duration: 28 days, oral, diet, Sprague-Dawley
[24] = subchronic, duration: 90 days, oral, diet, Sprague-Dawley
[25] = reproduction developmental, duration: 13 weeks, oral, gavage, Fischer 344, generation: F0
[26] = reproduction developmental, duration: 13 weeks, B6C3F1, generation: F0

With `C=C(Cl)Cl` [1,1-Dichloroethylene] the NOAEL (Rattus norvegicus [1]) was 30 mg/kg-day, the NOAEL (Canidae [2]) was 2.5 mg/kg-day and the LOAEL (Rattus norvegicus [3]; [20]) was 297 mg/m3. For the same compound, the NOAEL (Rattus norvegicus [3]; [20]) was 99.1 mg/m3, the LOAEL (Rattus norvegicus [3]; [21]) was 14 mg/kg-day and the NOAEL (Rattus norvegicus [3]; [21]) was 9 mg/kg-day. For the same compound, the LOAEL (Rattus norvegicus [4]) was 9 mg/kg-day.
`O=C1c2c(Br)c(Br)c(Br)c(Br)c2C(=O)N1CCN1C(=O)c2c(Br)c(Br)c(Br)c(Br)c2C1=O` [1,2-Bis(tetrabromophthalimido)ethane] was tested, and the LD50 (Rattus norvegicus [5]) was > 7500 mg/kg, the LOAEL (Oryctolagus sp.; [22]) was < 1000 mg/kg-day and the NOAEL (Oryctolagus sp.; [22]) was ≥ 1000 mg/kg-day. For the same compound, the NOAEL (Rattus norvegicus [6]; developmental, duration: 10 days, oral, gavage, Sprague-Dawley) was ≥ 1000 mg/kg-day, the NOAEL (Rattus norvegicus [6]; reproduction developmental, duration: 10 days, oral, gavage, F, Sprague-Dawley) was ≥ 1000 mg/kg-day and the “LOAEL (% diet)” value (Rattus norvegicus [6]; [23]) was > 1. For the same compound, the “NOAEL (% diet)” value (Rattus norvegicus [6]; [23]) was ≥ 1, the LOAEL (Rattus norvegicus [6]; [24]) was ≥ 1000 mg/kg-day and the NOAEL (Rattus norvegicus [6]; [24]) was ≥ 1000 mg/kg-day. For the same compound, the “NOAEL (% diet)” value (Rattus norvegicus [6]; [24]) was 1.
`Nc1ccc(Cc2ccc(N)c(Cl)c2)cc1Cl` [4,4'-Methylenebis(2-chloroaniline)] was tested, and the LD0 (Mus musculus [7]) was 640 mg/kg, the LOAEL (Canidae [8]) was 10 mg/kg-day and the LOAEL (Canidae [9]; duration: 9 years, capsule, F, hepatic) was 7.3 mg/kg-day. For the same compound, the LD50 (Oryctolagus sp.) was > 5000 mg/kg.
`ClC1=C(Cl)[C@]2(Cl)[C@H]3[C@H]([C@@H]4C=C[C@H]3C4)[C@@]1(Cl)C2(Cl)Cl` [Aldrin] was tested, and the LOAEL (Rattus norvegicus [10]) was 0.037 mg/kg-day, the LOAEL (Mus musculus [11]) was 2 mg/kg-day and the LOAEL (Rattus norvegicus [1]) was 1 mg/kg-day. It also gave an NOAEL (Rattus norvegicus [1]) of 0.2 mg/kg-day, an LOAEL (Rattus norvegicus [3]; oral, diet, liver toxicity) of 0.025 mg/kg-day and an LOAEL (Canidae [9]; duration: 16 months, diet, M/F, Urinary) of 0.043 mg/kg-day.
`Clc1cccc(-c2cc(Cl)cc(Cl)c2)c1` [Aroclor 1016] showed an LOAEL (Neovison sp.) of 3.43 mg/kg-day, an NOAEL (Neovison sp.) of 1.37 mg/kg-day and an LOAEL (Monkey) of 0.028 mg/kg-day. It also gave an NOAEL (Monkey) of 0.007 mg/kg-day.
In the case of `CC(C)(C)c1ccc(OP2OCC3(CO2)COP(Oc2ccc(C(C)(C)C)cc2C(C)(C)C)OC3)c(C(C)(C)C)c1` (stereo not drawn) [Bis(2,4-di-tert-butylphenyl) pentaerythritol diphosphite], the LD50 (Gallus sp.) is reported as > 6080 mg/kg, the LD50 (Oryctolagus sp.; New Zealand) is reported as > 2000 mg/kg and the LC50 (Rattus norvegicus [6]; acute, inhalation, Sprague-Dawley) is reported as > 2000 mg/m3. For the same compound, the LD50 (Rattus norvegicus [6]; acute, oral, Sprague-Dawley) was 5580 mg/kg, the NOAEL (Rattus norvegicus [6]; chronic, duration: 24 months, oral, diet, Wistar) was 39 mg/kg-day and the NOAEL (Rattus norvegicus [6]; reproduction developmental, duration: 90 days, oral, diet, Crl:CD(SD), generation: F0) was 1000 ppm. The NOAEL (Rattus norvegicus [6]; reproduction developmental, duration: 90 days, oral, diet, M, Crl:CD(SD)) was 22 mg/kg-day and the NOAEL (Canidae [12]; duration: 4 months, oral) was 12 mg/kg-day.
`Clc1ccccc1` [Chlorobenzene] was tested, and the NOEL (Rattus norvegicus [13]) was < 60 mg/kg-day, the LOAEL (Canidae [14]) was 54.5 mg/kg-day and the NOAEL (Canidae [14]) was 27.2 mg/kg-day. The LD100 (Mus musculus [15]) was 1000 mg/kg, the NOAEL (Rattus norvegicus [16]) was 230 mg/m3 and the LD50 (Oryctolagus sp.; New Zealand) was > 7940 mg/kg. The NOAEL (Oryctolagus sp.; reproduction developmental, duration: 13 days, inhalation, F, New Zealand) was 345 mg/m3, the NOAEL (Oryctolagus sp.; reproduction developmental, duration: 13 days, inhalation, New Zealand, generation: F1) was 2720 mg/m3 and the LD50 (Rattus norvegicus [6]; acute, oral, Sprague-Dawley) was 1540 mg/kg. For the same compound, the LD50 (Rattus norvegicus [6]; acute, oral, gavage, Fischer 344) was ≥ 2000 mg/kg and ≤ 4000 mg/kg, the LOAEL (Rattus norvegicus [6]; [25]) was 250 mg/kg-day and the NOAEL (Rattus norvegicus [6]; [25]) was 125 mg/kg-day. The NOAEL (Rattus norvegicus [6]; reproduction developmental, inhalation, Sprague-Dawley, generation: F0) was 230 mg/m3, the NOAEL (Rattus norvegicus [6]; reproduction developmental, inhalation, Sprague-Dawley, generation: F1) was 2070 mg/m3 and the NOAEL (Rattus norvegicus [6]; reproduction developmental, inhalation, Sprague-Dawley, generation: F2) was 2070 mg/m3. It also gave an NOAEL (Canidae [12]; duration: 6 months, inhalation) of 2.06 mg/L, an NOAEL (Canidae [12]; duration: 93 days, oral) of 54.5 mg/kg-day and an LOAEL (Mus musculus [17]; [26]) of 250 mg/kg-day. For the same compound, the NOAEL (Mus musculus [17]; [26]) was 125 mg/kg-day.
For `C=C1CC(=O)O1` [Diketene], the LD10 (Rattus norvegicus [18]) was 1270 mg/m3 and ≥ 1190 mg/m3 and ≤ 1410 mg/m3, the LD50 (Rattus norvegicus [6]; acute, oral, gavage) was ≥ 400 mg/kg and ≤ 800 mg/kg and the LD50 (Mus musculus [17]; acute) was ≥ 800 mg/kg and ≤ 1600 mg/kg.
`CC1CCc2cc(F)cc3c(=O)c(C(=O)O)cn1c23` (stereo not drawn) [Flumequine] showed an NOEL (Mus musculus [19]; feed) of 25 mg/kg-day and an NOEL (Mus musculus [19]; subchronic, diet) of 25 mg/kg-day.
